Data published in US11478467B2 (priority 2017, dated 2022).
Structures can show the parent of a compound that is named as a salt. Where two headings read alike, the source gives them in different places.

Legend:
[1] = target: peripheral 5-HT2A receptors (Rattus norvegicus (Rat), UniProt P14842); conditions: cited from earlier work; for 5-methoxytryptamine-induced hyperglycemia: pretreatment
CYP2D6 [2] = target: T1, CYP2D6 (Homo sapiens (Human), UniProt P10635); conditions: DEX O-demethylation; read-out: estimated mean IC50; cited from earlier work
T1 sequence (P10635 whole entry): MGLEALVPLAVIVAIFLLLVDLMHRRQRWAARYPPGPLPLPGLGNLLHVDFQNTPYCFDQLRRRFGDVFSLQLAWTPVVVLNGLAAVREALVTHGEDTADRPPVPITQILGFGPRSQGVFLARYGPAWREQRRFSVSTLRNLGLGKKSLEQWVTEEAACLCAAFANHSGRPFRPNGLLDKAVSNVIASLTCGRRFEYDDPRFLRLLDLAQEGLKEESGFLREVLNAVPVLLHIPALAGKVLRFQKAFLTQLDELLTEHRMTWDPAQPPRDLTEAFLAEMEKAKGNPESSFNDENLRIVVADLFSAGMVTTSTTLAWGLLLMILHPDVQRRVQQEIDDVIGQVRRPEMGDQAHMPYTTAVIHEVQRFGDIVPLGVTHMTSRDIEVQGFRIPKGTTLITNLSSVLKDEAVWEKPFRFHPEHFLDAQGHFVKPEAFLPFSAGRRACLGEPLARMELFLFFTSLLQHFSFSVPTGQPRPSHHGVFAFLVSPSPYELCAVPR

[3] = cited from earlier work
5-HT2A receptors = 5-HT2A receptors (Homo sapiens (Human), UniProt P28223); experiment: 5-HT2A receptor antagonist radioligand binding ([3H]ketanserin); conditions: for pKi / Ki: Ki calculated using the Cheng Prusoff equation; for IC50: inhibition of [3H]ketanserin binding, HEK-293 cells expressing human recombinant 5HT2A receptor
5-HT2A receptors, sequence (P28223 whole entry): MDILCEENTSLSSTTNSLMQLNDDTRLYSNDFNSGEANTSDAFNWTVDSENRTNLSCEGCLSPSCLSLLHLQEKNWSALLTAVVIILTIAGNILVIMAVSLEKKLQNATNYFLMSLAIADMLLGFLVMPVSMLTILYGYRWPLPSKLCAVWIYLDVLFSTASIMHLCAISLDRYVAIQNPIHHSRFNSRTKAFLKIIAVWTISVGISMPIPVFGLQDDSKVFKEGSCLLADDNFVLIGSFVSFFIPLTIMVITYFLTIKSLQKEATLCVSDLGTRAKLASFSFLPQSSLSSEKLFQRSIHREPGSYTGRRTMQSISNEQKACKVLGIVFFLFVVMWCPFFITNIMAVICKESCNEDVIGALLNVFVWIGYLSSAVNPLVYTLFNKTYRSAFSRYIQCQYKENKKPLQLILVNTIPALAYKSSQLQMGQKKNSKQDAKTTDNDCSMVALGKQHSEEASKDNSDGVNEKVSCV
Description: HEK-293 cells expressing human recombinant 5HT2A receptor were used in the antagonist radioligand binding studies. […] The inhibition constants (Ki) were calculated using the Cheng Prusoff equation. Both sarpogrelate enantiomers were potent inhibitors of [3H]ketanserin binding (Table 1). M1 enantiomers also potently bind to 5HT2A receptors with the Ki values that are approximately one order of magnitude higher than those of sarpogrelate enantiomers (Table 1). There are no meaningful differences between enantiomers in terms of 5-HT2A receptor binding for sarpogrelate or its main metabolite.
5HT2a ASSAY: Evaluation of the affinity of compounds for the human 5-HT2A receptor in transfected HEK-293 cells determined in a radioligand binding assay. Cell membrane homogenates (30-50 μg protein) were incubated 15 min at 37° C. with 0.5 nM [3H]ketanserin in the absence or presence of the test compound in a buffer containing 50 mM Tris-HCl (pH 7.4). Nonspecific binding was determined in the presence of 1 μM ketanserin. Following incubation, the samples were filtered rapidly under vacuum through glass fiber filters presoaked with 0.3% PEI and rinsed several times with ice-cold 50 mM Tris-HCl using a 96-sample cell harvester. The filters were dried then counted for radioactivity in a scintillation counter using a scintillation cocktail (WO2005013952A1, EP1500391A1[ab1], incorporated in its entirety by reference).

CYP2D6 [4] = target: T1, CYP2D6; experiment: Dextromethorphan O-demethylase activity in human liver microsomes; assay type: biochemical; conditions: CYP 2D6 activity; pooled human liver microsomes 0.25 mg/ml; read-out: IC50
Description: Dextromethorphan O-demethylase activity was determined in human liver microsomes. […] The incubation mixtures contained pooled human liver microsomes (final concentrations: 0.25 mg/ml), dextromethorphan, and a NADPH-generating system (1.3 mM NADP+, 3.3 mM glucose 6-phosphate, 3.3 mM MgCl2, and 0.4 U/ml glucose-6-phosphate dehydrogenase). […] All incubations were performed in triplicate, and mean values were used for analysis. […] Both sarpogrelate enantiomers inhibited CYP2D6-mediated dextromethorphan O-demethylation (Table 4).

[5] = Inhibition of dextromethorphan metabolism in vivo (dextromethorphan plasma levels after sarpogrelate); set-up: species or system rat; conditions: for Dextromethorphan AUC: dextromethorphan 50 mg/kg oral gavage, AUC 0-6 h, rat plasma
Description: In a separate set of studies, ability of sarpogrelate to inhibit dextromethorphan metabolism in vivo was studied in rats. Adult male Sprague Dawley rats (RjHan:SD) purchased from Janvier Labs (France) were housed in a climate-controlled room under a 12 h light/12 h dark cycle with ad libitum access to food and water. Two-three days prior to blood sampling, rats were provided with a catheter in the jugular vein and, thereafter, rats treated once with Carprofen (5 mg/kg) directly after surgery and catheters were rinsed daily with Heparin (500 IE/ml) (20 μl/rat/day). On the day of the experiment, dextromethorphan (50 mg/kg) was administered by oral gavage, immediately followed by intravenous bolus injection of sarpogrelate (1, 3 or 10 mg/kg; racemate or one of the enantiomers) or vehicle via vascular access port at t=0 h. Blood samples were collected at four time points until 6 hours post dextromethorphan administration. Sample size was 80 μl Li-heparin whole blood/time point, i.e. 40 μl Li-heparin plasma/time point. Whole blood samples were stored on ice until centrifugation (10 min at 3000 g, 4° C.). Plasma was prepared within 45 min after collection, frozen at −20° C. and stored at this temperature until processed for LC-MS analysis.

[6] = system: PCP-induced hyperactivity; experiment: Phencyclidine-induced hyperactivity in rats (sarpogrelate and dextromethorphan); assay type: in vivo, rat; conditions: in the presence of dextromethorphan; racemate 3 mg/kg, (−) sarpogrelate 1 or 3 mg/kg i.p.; PCP 5 mg/kg s.c.; 60-120 min
[7] = system: MK-801-induced hyperactivity; experiment: MK-801-induced hyperactivity in rats; assay type: in vivo, rat
Description: To confirm the ability of M1 enantiomers to induce effects that are relevant to CNS diseases and that are known for 5-HT2A receptor […], separate groups of female Wistar rats (n=6-9), housed 4-5 per cage under standard colony room conditions with free access to food and water, were pretreated intraperitoneally with varying doses of one of the two M1 enantiomers (0, 3 or 10 mg/kg) followed 15 minutes later by 0.1 mg/kg of MK801 or its vehicle and immediately thereafter placed into computer-controlled motor activity recording chambers (25×35.5×34 cm, L×W×H; transparent Plexiglas walls and a non-transparent plastic floor; enclosed within sound-attenuating ventilated cubicles) for 60 minutes, during which infrared photocell interruptions (5 cm and 14 cm off the floor) were recorded as a measure of motor activity. MK-801 is a phencyclidine-like NMDA receptor channel blocked commonly used in psychopharmacology research on novel therapies including novel antipsychotics.

[8] = system: locomotor activity, stereotypy, ataxia; conditions: DO 15-120 mg/kg, DEX 15-120 mg/kg, PCP 1.25-20 mg/kg; rats; cited from earlier work
[9] = system: behavioral disturbances in Alzheimer's disease; conditions: human, in vivo; cited from earlier work
[10] = system: NPI scores and sleep in patients with AD; conditions: human, in vivo; cited from earlier work
CYP2D6 [11] = target: T1, CYP2D6; conditions: dextromethorphan as substrate; cited from earlier work
[12] = sarpogrelate dose 1 mg/kg i.v. bolus
[13] = sarpogrelate dose 3 mg/kg i.v. bolus
[14] = sarpogrelate dose 10 mg/kg i.v. bolus

## COc1ccc2[nH]cc(CCN)c2c1 [5-methoxytryptamine]
[1]; agonist given alone
  blood glucose: induced hyperglycemia

## CN1CCN(CC/C=C2/c3ccccc3Sc3ccc(S(=O)(=O)N(C)C)cc32)CC1 [Cisthiothixene]
CYP2D6 [2]
  IC50: 137000 nM

## COc1cccc(CCc2ccccc2OCC(CN(C)C)OC(=O)CCC(=O)O)c1 (stereo not shown) [Compound 50 hydrochloride, Butanedioic acid, mono(2-(dimethylamino)-1-((2-(2-(3-methoxyphenyl)ethyl)phenoxy)methyl)ethyl) ester, hydrochloride]
[3]; 5, 20, 80 and 320 mg/kg/day orally, 52 weeks, beagle dogs
  mortality: No animal died or was sacrificed in extremis
[3]; dog, in vivo, po
  Food consumption: inhibited in females receiving 80 mg/kg/day and over
  biochemical examination: an increase in potassium in males receiving 80 mg/kg/day and over, and females receiving 320 mg/kg/day
  electrocardiographic or ophthalmoscopic examination: no treatment related change
  general conditions: emesis: emesis was noted in males and females receiving 320 mg/kg/day and males receiving 80 mg/kg/day
  general conditions: salivation: salivation in females receiving 320 mg/kg/day
  hematological examination: an increase in a platelet count in males receiving 320 mg/kg/day
  histopathological examination of the kidney: fatty degeneration was revealed in the cortico-medullary border zone of the kidney in males receiving 320 mg/kg/day
  urinalysis: an increase in protein was revealed in females receiving 320 mg/kg/day
  water consumption: inhibition of water consumption

## COc1cccc(CCc2ccccc2OC[C@H](CN(C)C)OC(=O)CCC(=O)O)c1 [Compound 51]
5-HT2A receptors
  pKi: 8.4
  IC50: 7.5 nM
CYP2D6 [4]
  IC50: 580 nM
[5]; sarpogrelate dose 1 mg/kg
  Fold increase (relative to vehicle) of dextromethorphan AUC: 1.4 fold
[5]; [12]
  Dextromethorphan AUC: 827.0 ng·h/mL
[5]; sarpogrelate dose 3 mg/kg
  Fold increase (relative to vehicle) of dextromethorphan AUC: 3.3 fold
[5]; [13]
  Dextromethorphan AUC: 2021.5 ng·h/mL
[5]; sarpogrelate dose 10 mg/kg
  Fold increase (relative to vehicle) of dextromethorphan AUC: 6.9 fold
[5]; [14]
  Dextromethorphan AUC: 4154.3 ng·h/mL

## COc1cccc(CCc2ccccc2OCC(CN(C)C)OC(=O)CCC(=O)O)c1 (stereo not shown) [Compound 52]
5-HT2A receptors
  pKi: 8.2
  IC50: 11 nM
CYP2D6 [4]
  IC50: 1300 nM
[5]; sarpogrelate dose 1 mg/kg
  Fold increase (relative to vehicle) of dextromethorphan AUC: 1.5 fold
[5]; [12]
  Dextromethorphan AUC: 921.4 ng·h/mL
[5]; sarpogrelate dose 3 mg/kg
  Fold increase (relative to vehicle) of dextromethorphan AUC: 2.7 fold
[5]; [13]
  Dextromethorphan AUC: 1649.5 ng·h/mL
[5]; sarpogrelate dose 10 mg/kg
  Fold increase (relative to vehicle) of dextromethorphan AUC: 5.3 fold
[5]; [14]
  Dextromethorphan AUC: 3195.9 ng·h/mL
[6]
  motor hyperactivity in PCP-treated rats: inhibited motor hyperactivity in PCP-treated rats

## COc1cccc(CCc2ccccc2OC[C@@H](O)CN(C)C)c1 [Compound 147, (S)-1-(dimethylamino)-3-(2-(3-methoxyphenethyl)phenoxy)propan-2-ol]
5-HT2A receptors
  Ki: 0.794 nM
  IC50: 1.2 nM
CYP2D6 [4]
  IC50: 38 nM

## COc1cccc(CCc2ccccc2OC[C@H](O)CN(C)C)c1 [Compound 148, (R)-1-(dimethylamino)-3-(2-(3-methoxyphenethyl)phenoxy) propan-2-ol]
5-HT2A receptors
  Ki: 0.631 nM
  IC50: 1.3 nM
CYP2D6 [4]
  IC50: 96 nM
[7]; M1 enantiomer 3 or 10 mg/kg i.p., 15 min before 0.1 mg/kg MK801, female Wistar rats
  hyperactivity induced by MK-801 (motor activity, 60 min): reduced hyperactivity induced by MK-801

## COc1cccc([C@H](O)C2CCN(CCc3ccc(F)cc3)CC2)c1OC [M-100,907]
[7]; 3 mg/kg
  hyperactivity induced by MK-801 (motor activity, 60 min): reduced hyperactivity induced by MK-801

## c1ccc(C2(N3CCCCC3)CCCCC2)cc1 [PCP, 1-(1-phenylcyclohexyl)piperidine]
[8]
  behavioral effects given alone (locomotor hyperactivity, stereotypy, ataxia): dose-dependent locomotor hyperactivity, stereotypy and ataxia

## O=C(c1ccc(F)cc1)C1CCN(CCn2c(=O)[nH]c3ccccc3c2=O)CC1 [ketanserin]
[1]
  5-methoxytryptamine-induced hyperglycemia: prevented

## CC12CC3CC(C)(C1)CC(N)(C3)C2 [memantine, 3,5-dimethyladamantan-1-amine]
[9]
  agitation/aggression: significant improvement in agitation/aggression
  delusions: significant improvement in delusions
  disinhibition: significant improvement in disinhibition
  irritability/lability: superior to control in irritability/lability
  nighttime disturbance/diurnal rhythm disturbances: significant improvement in nighttime disturbance/diurnal rhythm disturbances
[10]
  fragmented sleep: effective in reducing fragmented sleep
  scores of NPI item for irritability/lability: significantly decreases the scores of NPI item for irritability/lability
  scores of NPI subscale for anxiety: significantly decreases in the scores of NPI subscale for anxiety

## C=C[C@H]1C[N@@]2CC[C@H]1C[C@@H]2[C@@H](O)c1ccnc2ccc(OC)cc12 [quinidine]
CYP2D6 [11]
  inhibition type (Dixon plots): fit well to all competitive inhibition types

## Cc1nc2n(c(=O)c1CCN1CCC(c3noc4cc(F)ccc34)CC1)CCCC2 [risperidone]
CYP2D6 [2]
  IC50: 39100 nM

## COc1cccc(OC(C)CNC(=N)Cc2cccc(C)c2)c1 (stereo not shown) [xylamidine]
[1]
  5-methoxytryptamine-induced hyperglycemia: prevented
